Measurements taken from ChEMBL document CHEMBL1687746, “Impact of sarA on daptomycin susceptibility of Staphylococcus aureus biofilms in vivo” (2009).
≈ marks a conversion by molar mass, not a printed value. Calls of active or inactive are those of the source. No cut-off for these calls is given here.

Key:
Staphylococcus aureus [1] = assay: Antimicrobial activity against Staphylococcus aureus UAMS-1 sarA mutant by Etest method
Staphylococcus aureus [2] = assay: Antimicrobial activity against Staphylococcus aureus UAMS-929 assessed as bacterial load in catheter at 20 times MIC; type: functional
Staphylococcus aureus [3] = assay: Antimicrobial activity against Staphylococcus aureus UAMS-1625 assessed as bacterial load in catheter at 10 times MIC; type: functional
Staphylococcus aureus [4] = assay: Antimicrobial activity against Staphylococcus aureus UAMS-1 assessed as reduction in bacterial load in catheter at >/= 10 ug/ml for 3 days; type: functional, organism-based
Staphylococcus aureus [5] = assay: Antimicrobial activity against Staphylococcus aureus UAMS-1 by Etest method
Staphylococcus aureus [6] = assay: Antimicrobial activity against Staphylococcus aureus UAMS-1 assessed as reduction in bacterial load in catheter at 20 ug/ml for 3 days; type: functional, organism-based
Staphylococcus aureus [7] = assay: Antimicrobial activity against Staphylococcus aureus UAMS-1 assessed as bacterial load in catheter at 20 times MIC; type: functional
Staphylococcus aureus [8] = assay: Antimicrobial activity against Staphylococcus aureus UAMS-1625 by Etest method; type: functional
Staphylococcus aureus [9] = assay: Antimicrobial activity against Staphylococcus aureus UAMS-1625 sarA mutant by Etest method; type: functional
Staphylococcus aureus [10] = assay: Antimicrobial activity against Staphylococcus aureus UAMS-1653 assessed as bacterial load in catheter at 10 times MIC; type: functional
Staphylococcus aureus [11] = assay: Antimicrobial activity against Staphylococcus aureus UAMS-1625 reduction in bacterial load in catheter at 20 ug/ml for 3 days; type: functional, organism-based

Compound: CCCCCCCCCC(=O)N[C@@H](Cc1c[nH]c2ccccc12)C(=O)N[C@H](CC(N)=O)C(=O)N[C@@H](CC(=O)O)C(=O)N[C@@H]1C(=O)NCC(=O)N[C@@H](CCCN)C(=O)N[C@@H](CC(=O)O)C(=O)N[C@H](C)C(=O)N[C@@H](CC(=O)O)C(=O)NCC(=O)N[C@H](CO)C(=O)N[C@@H]([C@H](C)CC(=O)O)C(=O)N[C@@H](CC(=O)c2ccccc2N)C(=O)O[C@@H]1C
- MIC (Staphylococcus aureus [1]): 0.5 µg/mL (≈ 0.309 µM)
- Activity (Staphylococcus aureus [2]): 46.4%
- Activity (Staphylococcus aureus [3]): 6.3%
- Activity (Staphylococcus aureus [4]): Active
- MIC (Staphylococcus aureus [5]): 0.5 µg/mL (≈ 0.309 µM)
- Activity (Staphylococcus aureus [6]): inactive
- Activity (Staphylococcus aureus [7]): 6.7%
- MIC (Staphylococcus aureus [8]): 0.38 µg/mL (≈ 0.234 µM)
- MIC (Staphylococcus aureus [9]): 0.38 µg/mL (≈ 0.234 µM)
- Activity (Staphylococcus aureus [10]): 69%
- Activity (Staphylococcus aureus [11]): Active
